Results reported in the supplement of paper PMC11208160.

Experiment: recombinant barcode read abundance after kanamycin selection (control-corrected) (log10(CPM+1)); higher = more efficient recombination; sequences stand for … in AGTGCAGAGAAAATCGGCCAGTTTTCTCTGCCTGCAGTCCGCATGCCGT…AGATTTATGCAGCGGACTGCCTTTCTCCCAAAGTGATAAACCGGACAGTATCATGGACCGGTTTTCCCGGTAATCCGTATTTGCAAGGTTGGTTTCACT; site = the 11-nt target
How it was run: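 In E. coli, a pooled library matched targets to IS621 bridge RNA target-binding loops and was introduced alongside a donor plasmid. Cells went onto chloramphenicol/ampicillin/kanamycin with 0.1 mM IPTG or onto chloramphenicol/ampicillin LB agar as control, in duplicate. Recombination efficiency, from recombinant-junction barcodes as counts per million, is averaged and control-corrected. It is reported as log10(CPM+1).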
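Note: IS621 recombinase and bridge RNA in Escherichia coli cells.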

Sequence | recombinant barcode read abundance (log10)
TGCACCTCTTGGGTTCTAACCTGTTGCTA (site CAATAGACTAG) | 0.0267
TGCACCTCTTGGGTTCTAACCTGTTGCTA (site TGCACCTCTTA) | 0.541
TGCCAATCTTGGGTTCTAACCTGTTGCCT (site TGCCAATCTAG) | 0.242
TGCCAATCTTGGGTTCTAACCTGTTGCCT (site TTCCAATCTTG) | 0.0187
TGCCATCCTTGGGTTCTAACCTGTTGCAT (site AGCCATCCTAT) | 0.111
TGCCATCCTTGGGTTCTAACCTGTTGCAT (site TGCCATCCTAT) | 0.544
TGCCTCTCTTGGGTTCTAACCTGTTGCCT (site GGCTTCTCTAG) | 0.0915
TGCCTCTCTTGGGTTCTAACCTGTTGCCT (site TGCCTCTCTAG) | 0.172
TGCCTGCCTTGGGTTCTAACCTGTTGCAG (site ATAGAATCTGA) | 0.245
TGCCTGCCTTGGGTTCTAACCTGTTGCAG (site TGCCTGCCTCT) | 0.0105
TGCGAGTCTTGGGTTCTAACCTGTTGCCT (site TGCAAGTCTAG) | 0.626
TGCGAGTCTTGGGTTCTAACCTGTTGCCT (site TGCGAGTCTAG) | 1.12
TGCGCCACTTGGGTTCTAACCTGTTGCCT (site TGCGCAACTAG) | 0.113
TGCGCCACTTGGGTTCTAACCTGTTGCCT (site TGCGCCACTAG) | 0.517
TGCGCCACTTGGGTTCTAACCTGTTGCCT (site TGCGCGACTAG) | 0.0341
TGCGCCACTTGGGTTCTAACCTGTTGCCT (site TGCGCTACTAG) | 0.0797
TGCGTCACTTGGGTTCTAACCTGTTGCGT (site TGCGTCACTAC) | 1.56
TGCGTCACTTGGGTTCTAACCTGTTGCGT (site TGCGTTCCTAC) | 0.0906
TGCGTCGCTTGGGTTCTAACCTGTTGCCT (site AGCGTCGCTAG) | 0.149
TGCGTCGCTTGGGTTCTAACCTGTTGCCT (site TGCGTCGCTAG) | 0.687
TGCTAAGCTTGGGTTCTAACCTGTTGCTG (site TCCTAAGCTCC) | 0.288
TGCTAAGCTTGGGTTCTAACCTGTTGCTG (site TGCTAAGCTCA) | 0.16
TGCTACCCTTGGGTTCTAACCTGTTGCCT (site TACTACCCTAG) | 0.81
TGCTACCCTTGGGTTCTAACCTGTTGCCT (site TCCTACCCTAG) | 0.367
TGCTACCCTTGGGTTCTAACCTGTTGCCT (site TGCTACCCTAG) | 0.427
TGCTACCCTTGGGTTCTAACCTGTTGCCT (site TTCTACCCTAG) | 0.213

Sequence | recombinant barcode read abundance (log10)
TGCTGATCTTGGGTTCTAACCTGTTGCCT (site AGCTGATCTAG) | 0.114
TGCTGATCTTGGGTTCTAACCTGTTGCCT (site CGCTGATCTAG) | 0.159
TGCTGATCTTGGGTTCTAACCTGTTGCCT (site GGCTGATCTAG) | 0.158
TGCTGATCTTGGGTTCTAACCTGTTGCCT (site TGCTGATCTAG) | 0.335
TGCTGTACTTGGGTTCTAACCTGTTGCCT (site TGCTGTACTAG) | 0
TGCTGTACTTGGGTTCTAACCTGTTGCCT (site TGCTGTCCTAG) | 0.0484
TGCTGTACTTGGGTTCTAACCTGTTGCCT (site TGCTGTGCTAG) | 0.0772
TGCTGTACTTGGGTTCTAACCTGTTGCCT (site TGCTGTTCTAG) | 0.0131
TGCTGTTCTTGGGTTCTAACCTGTTGCCT (site TGCTGTACTAG) | 0.0922
TGCTGTTCTTGGGTTCTAACCTGTTGCCT (site TGCTGTCCTAG) | 0.212
TGCTGTTCTTGGGTTCTAACCTGTTGCCT (site TGCTGTGCTAG) | 0.241
TGCTGTTCTTGGGTTCTAACCTGTTGCCT (site TGCTGTTCTAG) | 0.187
TGCTTACCTTGGGTTCTAACCTGTTGCCT (site AGCTTACCTAG) | 0.0889
TGCTTACCTTGGGTTCTAACCTGTTGCCT (site CGCTTACCTAG) | 0.332
TGCTTACCTTGGGTTCTAACCTGTTGCCT (site GGCTTACCTAG) | 0.185
TGCTTACCTTGGGTTCTAACCTGTTGCCT (site TGCTTACCTAG) | 0.282
TGGAAGTCTTGGGTTCTAACCTGTTGCTT (site TGAAAGCCTAA) | 0
TGGAAGTCTTGGGTTCTAACCTGTTGCTT (site TGGAAGTCTAA) | 0.418
TGGAATTCTTGGGTTCTAACCTGTTGCTT (site TGGAATTCTAA) | 0.0863
TGGAATTCTTGGGTTCTAACCTGTTGCTT (site TGGACTTCTAA) | 0.0255
TGGACCACTTGGGTTCTAACCTGTTGCCT (site TGGAACACTAG) | 0.0728
TGGACCACTTGGGTTCTAACCTGTTGCCT (site TGGACCACTAG) | 0.765
TGGACCACTTGGGTTCTAACCTGTTGCCT (site TGGAGCACTAG) | 0.0755
TGGACCACTTGGGTTCTAACCTGTTGCCT (site TGGATCACTAG) | 0.0342
TGGACTACTTGGGTTCTAACCTGTTGCTC (site CTACAACCTCT) | 0.209
TGGACTACTTGGGTTCTAACCTGTTGCTC (site TGGACTACTGA) | 0.195

Sequence | recombinant barcode read abundance (log10)
TGGACTTCTTGGGTTCTAACCTGTTGCTG (site TGGACTTCTCA) | 0.0836
TGGACTTCTTGGGTTCTAACCTGTTGCTG (site TGGACTTCTGA) | 0.215
TGGAGCCCTTGGGTTCTAACCTGTTGCAG (site TGGAGCCCTAT) | 0.13
TGGAGCCCTTGGGTTCTAACCTGTTGCAG (site TGGAGCCCTCT) | 0.484
TGGAGCCCTTGGGTTCTAACCTGTTGCAG (site TGGAGCCCTGT) | 0.336
TGGAGCCCTTGGGTTCTAACCTGTTGCAG (site TGGAGCCCTTT) | 0.0206
TGGAGTACTTGGGTTCTAACCTGTTGCCT (site TGGAGTACTAG) | 0.874
TGGAGTACTTGGGTTCTAACCTGTTGCCT (site TGGCGTACTAG) | 0.0846
TGGAGTACTTGGGTTCTAACCTGTTGCCT (site TGGGGTACTAG) | 0.146
TGGAGTACTTGGGTTCTAACCTGTTGCCT (site TGGTGTACTAG) | 0
TGGAGTCCTTGGGTTCTAACCTGTTGCCT (site TGGAGTCCTAG) | 1.11
TGGAGTCCTTGGGTTCTAACCTGTTGCCT (site TGGCGTCCTAG) | 0.0977
TGGAGTCCTTGGGTTCTAACCTGTTGCCT (site TGGGGTCCTAG) | 0.548
TGGAGTCCTTGGGTTCTAACCTGTTGCCT (site TGGTGTCCTAG) | 0.0821
TGGATGGCTTGGGTTCTAACCTGTTGCCT (site GGGATGGCTAG) | 0.149
TGGATGGCTTGGGTTCTAACCTGTTGCCT (site TGGATGGCTAG) | 0.17
TGGCAGGCTTGGGTTCTAACCTGTTGCCT (site TGGCAGACTAG) | 0.0119
TGGCAGGCTTGGGTTCTAACCTGTTGCCT (site TGGCAGCCTAG) | 0.00869
TGGCAGGCTTGGGTTCTAACCTGTTGCCT (site TGGCAGGCTAG) | 0.64
TGGCAGGCTTGGGTTCTAACCTGTTGCCT (site TGGCAGTCTAG) | 0.0352
TGGCAGTCTTGGGTTCTAACCTGTTGCCT (site TGGCAGACTAG) | 0.207
TGGCAGTCTTGGGTTCTAACCTGTTGCCT (site TGGCAGCCTAG) | 0.0447
TGGCAGTCTTGGGTTCTAACCTGTTGCCT (site TGGCAGGCTAG) | 0.272
TGGCAGTCTTGGGTTCTAACCTGTTGCCT (site TGGCAGTCTAG) | 0.413
TGGCATCCTTGGGTTCTAACCTGTTGCGT (site AACAGGGCTCG) | 0.0723
